Data from patent US8188301B2, “Disubstituted phenylpyrrolidines as modulators of cortical catecholaminergic neurotransmission” (NSAB, Filial af NeuroSearch Sweden AB, Sverige, priority 2007, dated 2012).
Counter-ions that a name gives are not always drawn.

Structure (SMILES)	melting point [°C]
CCN1CCC(O)(c2ccc(F)c(F)c2)C1 (centres unmarked) (as salt: fumaric acid salt)	136 to 137
CCN1CCC(O)(c2ccc(F)c(Cl)c2)C1 (centres unmarked) (as salt: fumaric acid salt) [Example 3, 3-(3-CHLORO-4-FLUOROPHENYL)-1-ETHYLPYRROLIDIN-3-OL]	157 to 158
CCN1CCC(O)(c2cccc(F)c2F)C1 (centres unmarked) (as salt: fumaric acid salt) [Example 4, 3-(2,3-DIFLUOROPHENYL)-1-ETHYLPYRROLIDIN-3-OL]	119 to 120
CCCN1CCC(O)(c2cc(F)cc(F)c2)C1 (centres unmarked) (as salt: fumaric acid salt) [Example 9, 3-(3,5-DIFLUOROPHENYL)-1-PROPYLPYRROLIDIN-3-OL]	136 to 137
CCN1CCC(O)(c2ccc(Cl)c(Cl)c2)C1 (centres unmarked) (as salt: fumaric acid salt) [Example 10, 3-(3,4-DICHLOROPHENYL)-1-ETHYLPYRROLIDIN-3-OL]	184 to 185
CCN1CCC(O)(c2ccc(F)c(F)c2)C1 (centres unmarked) (as salt: fumaric acid salt) [Example 12, 3-(3,4-DIFLUOROPHENYL)-1-ETHYLPYRROLIDIN-3-OL]	157 to 158
CCCN1CCC(O)(c2ccc(F)c(F)c2)C1 (centres unmarked) (as salt: fumaric acid salt) [Example 27]	127 to 129
CCCN1CCC(O)(c2ccc(F)c(F)c2)C1 (centres unmarked) (as salt: fumaric acid salt) [Example 28]	128 to 129
FC1(c2cc(Cl)cc(Cl)c2)CCNC1 (centres unmarked) (as salt: hydrochloric acid salt) [Example 14, 3-(3,5-DICHLOROPHENYL)-3-FLUOROPYRROLIDINE]	201 to 202
CCCN1CCC(O)(c2cc(F)cc(Cl)c2)C1 (centres unmarked) (as salt: oxalic acid salt)	157.2
CCN1CCC(O)(c2cc(F)cc(Cl)c2)C1 (centres unmarked) (as salt: oxalic acid salt) [Example 5, 3-(3-CHLORO-5-FLUOROPHENYL)-1-ETHYLPYRROLIDIN-3-OL]	169 to 170
CCCN1CCC(O)(c2ccc(F)c(F)c2)C1 (centres unmarked) (as salt: oxalic acid salt) [Example 7, 3-(3,4-DIFLUOROPHENYL)-1-PROPYLPYRROLIDIN-3-OL]	131 to 132
CCCN1CCC(O)(c2cc(F)cc(F)c2)C1 (centres unmarked) (as salt: oxalic acid salt) [Example 29]	117 to 118
CCCN1CCC(O)(c2cc(F)cc(F)c2)C1 (centres unmarked) (as salt: oxalic acid salt) [Example 30]	118 to 119
CCN1CCC(O)(c2cc(F)cc(Cl)c2)C1 (centres unmarked) (as salt: oxalic acid salt) [Example 31]	117 to 118
CCN1CCC(O)(c2cccc(Cl)c2F)C1 (centres unmarked) (as salt: oxalic acid salt) [Example 35]	71 to 74
CCN1CCC(O)(c2cccc(Cl)c2F)C1 (centres unmarked) (as salt: oxalic acid salt) [Example 37]	72 to 74
CC(C)CN1CCC(O)(c2cccc(F)c2F)C1 (centres unmarked) (as salt: oxalic acid salt) [Example 39]	176
CN1CCC(O)(c2cc(F)cc(F)c2)C1 (centres unmarked) (as salt: oxalic acid salt) [Example 47]	134 to 135
OC1(c2cccc(F)c2F)CCN(CC2CC2)C1 (centres unmarked) (as salt: oxalic acid salt) [Example 64]	170 to 171
CCN1CCC(O)(c2cc(F)cc(Cl)c2)C1 (centres unmarked) (as salt: oxalic acid salt) [Example 67]	113 to 114
CCN1CCC(O)(c2cc(F)cc(F)c2)C1 (single isomer, unassigned; (+)) (as salt: oxalic acid salt) [Example 2, (+)-3-(3,5-DIFLUOROPHENYL)-1-ETHYLPYRROLIDIN-3-OL]	137 to 139
COCCN1CCC(O)(c2cccc(F)c2F)C1 (single isomer, unassigned; (+)) (as salt: oxalic acid salt) [Example 60, (+)-3-(2,3-DIFLUOROPHENYL)-1-(2-METHOXYETHYL)PYRROLIDIN-3-OL]	149 to 150
CCN1CCC(O)(c2cc(F)cc(F)c2)C1 (single isomer, unassigned; (-)) (as salt: oxalic acid salt) [Example 1, (−)-3-(3,5-DIFLUOROPHENYL)-1-ETHYLPYRROLIDIN-3-OL]	111 to 112
CCN1CCC(O)(c2cccc(F)c2F)C1 (single isomer, unassigned; (-)) (as salt: oxalic acid salt) [Example 32, (−)-3-(2,3-DIFLUOROPHENYL)-1-ETHYLPYRROLIDIN-3-OL]	118 to 120
COCCN1CCC(O)(c2cccc(F)c2F)C1 (single isomer, unassigned; (-)) (as salt: oxalic acid salt) [Example 42, (−)-3-(2,3-DIFLUOROPHENYL)-1-(2-METHOXYETHYL)PYRROLIDIN-3-OL]	146.7

Next, values leading:

melting point [°C]	Structure (SMILES)
164 to 166	CN1CCC(O)(c2ccc(F)c(F)c2)C1 (centres unmarked) (as salt: fumaric acid salt)
142 to 145.5	CCN1CCC(O)(c2cccc(Cl)c2F)C1 (centres unmarked) (as salt: fumaric acid salt)
157.9	CCCN1CCC(O)(c2ccc(F)c(Cl)c2)C1 (centres unmarked) (as salt: fumaric acid salt)
129 to 131	CN1CCC(O)(c2cc(F)cc(Cl)c2)C1 (centres unmarked) (as salt: fumaric acid salt)
143 to 147	CC(C)N1CCC(O)(c2ccc(F)c(F)c2)C1 (centres unmarked) (as salt: fumaric acid salt)
97 to 100	CCCN1CCC(O)(c2cccc(F)c2F)C1 (centres unmarked) (as salt: fumaric acid salt) [Example 33]
95 to 98	CCCN1CCC(O)(c2cccc(F)c2F)C1 (centres unmarked) (as salt: fumaric acid salt) [Example 34]
136	Fc1cccc(C2(F)CCNC2)c1F (centres unmarked) (as salt: hydrochloric acid salt) [Example 23, 3-(2,3-DIFLUOROPHENYL)-3-FLUOROPYRROLIDINE]
117 to 119	CN1CCC(O)(c2ccc(F)cc2F)C1 (centres unmarked) (as salt: oxalic acid salt)
206 to 207	CCN1CCC(O)(c2cccc(Cl)c2Cl)C1 (centres unmarked) (as salt: oxalic acid salt)
146 to 147	CCCCN1CCC(O)(c2cc(F)cc(F)c2)C1 (centres unmarked) (as salt: oxalic acid salt)
123 to 125	CN1CCC(O)(c2cccc(Cl)c2F)C1 (centres unmarked) (as salt: oxalic acid salt)
128 to 129	CN1CCC(F)(c2cc(F)cc(F)c2)C1 (centres unmarked) (as salt: oxalic acid salt) [Example 11, 3-(3,5-DIFLUOROPHENYL)-3-FLUORO-1-METHYLPYRROLIDINE]
176 to 177	Fc1cc(F)cc(C2(F)CCNC2)c1 (centres unmarked) (as salt: oxalic acid salt) [Example 13, 3-(3,5-DIFLUOROPHENYL)-3-FLUOROPYRROLIDINE]
159 to 162	CN1CCC(O)(c2cc(F)cc(F)c2)C1 (centres unmarked) (as salt: oxalic acid salt) [Example 18]
155.3	CCCCN1CCC(O)(c2cccc(F)c2F)C1 (centres unmarked) (as salt: oxalic acid salt) [Example 38]
134.3	CN1CCC(O)(c2cccc(F)c2F)C1 (centres unmarked) (as salt: oxalic acid salt) [Example 40]

melting point [°C]	Structure (SMILES)
120	C=CCN1CCC(O)(c2cccc(F)c2F)C1 (centres unmarked) (as salt: oxalic acid salt) [Example 41]
102 to 103	C=CCN1CCC(O)(c2cc(F)cc(F)c2)C1 (centres unmarked) (as salt: oxalic acid salt) [Example 44]
162 to 163	CC(C)CN1CCC(O)(c2cc(F)cc(F)c2)C1 (centres unmarked) (as salt: oxalic acid salt) [Example 46]
172.8	OC1(c2cccc(F)c2F)CCN(CC2CC2)C1 (centres unmarked) (as salt: oxalic acid salt) [Example 49]
150	CN1CCC(O)(c2cc(F)cc(F)c2)C1 (centres unmarked) (as salt: oxalic acid salt) [Example 52]
164 to 165	CC(C)CN1CCC(O)(c2cc(F)cc(F)c2)C1 (centres unmarked) (as salt: oxalic acid salt) [Example 53]
104 to 105	C=CCN1CCC(O)(c2cc(F)cc(F)c2)C1 (centres unmarked) (as salt: oxalic acid salt) [Example 55]
157 to 158	CCCCN1CCC(O)(c2cccc(F)c2F)C1 (centres unmarked) (as salt: oxalic acid salt) [Example 58]
131 to 132	CN1CCC(O)(c2cccc(F)c2F)C1 (centres unmarked) (as salt: oxalic acid salt) [Example 59]
168 to 169	CC(C)CN1CCC(O)(c2cccc(F)c2F)C1 (centres unmarked) (as salt: oxalic acid salt) [Example 61]
119 to 120	C=CCN1CCC(O)(c2cccc(F)c2F)C1 (centres unmarked) (as salt: oxalic acid salt) [Example 62]
117 to 118	CN1CCC(O)(c2cc(F)cc(Cl)c2)C1 (centres unmarked) (as salt: oxalic acid salt) [Example 65]
114 to 115	CN1CCC(O)(c2cc(F)cc(Cl)c2)C1 (centres unmarked) (as salt: oxalic acid salt) [Example 66]
131 to 132	COCCN1CCC(O)(c2cc(F)cc(F)c2)C1 (single isomer, unassigned; (+)) (as salt: oxalic acid salt) [Example 54, (+)-3-(3,5-DIFLUOROPHENYL)-1-(2-METHOXYETHYL)PYRROLIDIN-3-OL]
144 to 145	OC1(c2cccc(F)c2F)CCN(CCC(F)(F)F)C1 (single isomer, unassigned; (+)) (as salt: oxalic acid salt) [Example 63, (+)-3-(2,3-DIFLUOROPHENYL)-1-(3,3,3-TRIFLUOROPROPYL)PYRROLIDIN-3-OL]
130 to 131	COCCN1CCC(O)(c2cc(F)cc(F)c2)C1 (single isomer, unassigned; (-)) (as salt: oxalic acid salt) [Example 45, (−)-3-(3,5-DIFLUOROPHENYL)-1-(2-METHOXYETHYL)PYRROLIDIN-3-OL]
